These are literature values, as cited in patent publication US7045166B2, “Sweetener compositions containing fractions of inulin” (priority 1998, dated 2006).

The conditions of data set [1]: relative to sucrose (sugar).
The conditions of data set [2]: artificial sweetener, general statement.

On to `COC(=O)[C@H](Cc1ccccc1)NC(=O)[C@H](CC(=O)O)NCCC(C)(C)C` [Neotane], for which the “sweetness of an equivalent dose of sucrose” value in data set [1] is given as 8000 times.
Take `OC[C@H]1O[C@H](O[C@]2(CCl)O[C@H](CCl)[C@@H](O)[C@@H]2O)[C@H](O)[C@@H](O)[C@H]1Cl` [Sucralose, sucralose]: the “sweetness of an equivalent dose of sucrose” value in data set [1] is recorded as 600 times. In addition, the heat stability result in data set [2] was “heat stable”.
